According to US20250144186A1, “NOVEL THERAPEUTIC USES OF GARDNERELLA ENDOLYSINS” (priority 2022, published 2025):
Like-named read-outs stand apart in the source and are kept apart here.

Assays:
Six Gardnerella strains = experiment: microbe, parasite or virus in culture; type: cell-based, Gardnerella spp.
Procedure: (§1) The final volume of the reaction was 100 µL and the reactions were performed in triplicate in 384-well plates. The OD600 was measured using a microplate reader (Tecan, Grodig, Austria) to generate timepoint 0 h baseline values. The reactions were incubated anaerobically for 24 h, then the OD600 was measured again, and the MIC was measured as the lowest concentration with OD600<0.14. […] This process was repeated for a maximum of 25 rounds. In each round, the input CFU/mL was determined by quantitative plating.
(§2) In parallel, one representative of G. vaginalis (ATCC 14018^T) was passaged 25 times with PM-477 (H2B10).

[1] = 0.75% MDZ vaginal gel over 16 weeks, cited from earlier work
[2] = tested on: G. vaginalis (ATCC 14018T); experiment: Serial passaging for resistance formation with PM-477; type: cell-based, Gardnerella vaginalis; conditions: G. vaginalis (ATCC 14018T) passaged 25 times with PM-477 (H2B10)
Procedure: as §1, §2

[3] = tested on: Gardnerella strains grown as biofilm; experiment: MBEC on pre-formed biofilms, summary over ancestor strains; type: cell-based, Gardnerella spp.; conditions: 40-72 h old pre-formed biofilms
Procedure: Gardnerella spp. (see figures for strain specification) was resuspended in brain heart infusion broth supplemented with 2% (w/v) gelatin, 0.5% yeast extract (w/v), 0.1% starch (w/v) and 0.25% glucose (w/v) (sBHIG). Passaged strains were resuspended in unbuffered NYCB supplemented with 1% glucose (w/v) (sNYCB). The OD600 was set to 0.1 (approx. 10^7-10^8 CFU/mL) and the cell suspension was diluted 1:10 in growth medium as input for biofilm formation. A total of 200 μL of the respective bacterial suspensions was added to 96-well flat bottom plates (tissue-culture treated, Sigma-Aldrich). The biofilms were grown under anaerobic conditions at 37° C. for 40 to 72 hours, depending on the isolate. Subsequently, the supernatant was removed, and the biofilm was treated with antimicrobials dissolved in sBHIG (at pH 5 for treatment with PM-477 (H2B10), and unbuffered for treatment with antibiotics) in 100 μL and incubated anaerobically at 37° C. for another 24 hours. After the treatment, the biofilms were washed twice with 200 μL 1x PBS and dissolved by vigorous pipetting (40x up and down). Serial dilutions of the dissolved cells were spotted on chocolate agar plates. The plates were incubated anaerobically for two to three days and the minimum biofilm eradication concentration (MBEC) of the endolysin or the antibiotics in use were calculated. […]

Molecule | MIC (Six Gardnerella strains; Gardnerella, read-out: MIC after 9 rounds of passaging, 4 out of 6 strains, maximal concentration in use) [µg/mL] | pre-passaging MIC range (Six Gardnerella strains; six Gardnerella strains before passaging) [µg/mL] | probability of lasting cure ([1]; 12 weeks after end of therapy (week 28)) [%] | probability of lasting cure ([1]; after 16 weeks) [%] | MIC after 25 rounds of passaging [2] [µg/mL] | MBEC, range over strains [3] [µg/mL]
Cc1ncc([N+](=O)[O-])n1CCO [MDZ, metronidazole] | > 512 | 8 to 256 | 34 | 70 |  | 
PM-477: genetically engineered recombinant Gardnerella-specific endolysin, amino acid sequence SEQ ID NO: 1, His-tag cleaved off (protein, His-tag cleaved off; H2B10) SKRGIDVSEWQGDIDFNAVKASGVEFVIIRAGYGIGCKDKWFEQNYRKAKTCGLDVGAYWYSYANSGFEAAEEAQSCVNMLSGKSFEYPVYFDLEEKSQLNRGRAFCDSLITGFCNKLESCGYYAGFYTSLSTANNLVSAHVRNRYALWIAQWNTHCSYQGSYGLWQYSSSGSVPGVAGRVDMDYAYVDYPSIIKNVGLNGYKNGGSYTAPQISSIDEVAREVINGDWGNGNERKQRLTSAGYDYASVQNKVNELLGVKAYRKSVDELAREVIRGTWGNGSTRKQRLTQAGYDYNAVQKRVNELL |  |  |  |  | 8 | <2 to 32
